The values that follow come from patent publication US7504384B2 (priority 2000, dated 2009).

Series [1] concerns Human RBC. The experiment in a line: Prevention of hemolysis of human red blood cells. The note with it: 20 min, 10 μM Lipid-conjugate, None = 1.000. It is filed as cell-based. The method, then:
Hemolysis, the breakdown of red blood cells (RBC), may be either a primary disease in itself, or a syndrome associated with another disease or physiological insult. In order to determine the effect of Lipid-conjugates on hemolysis, red blood cells were incubated in the presence of known membrane destabilizing agents and the release of hemoglobulin into the extracellular medium was detected.
Human RBC were washed in saline and suspended in Hanks buffer (pH 7.4). Hemolysis was induced in the absence or presence of 10 μM Lipid-conjugates by treatment with either 5 U/ml streptolysin O (SLO), 25 U/ml streptolysin S (SLS), or 5 μg/ml lysophosphatidylcholine (lyso-PC) for 20 min. The cell membranes were spun and the hemoglobin content in the supernatant was determined by measuring the O.D. at 540 nm (Table 5.1).

Series [2] deals with Influenza A (H1N1 strain) virus. It is filed as cell-based, Influenza type A, A/New Caledonia/20/99 (H1N1). As to conditions: high concentration; Visual Observation Assay; Influenza A (H1N1 strain).
Series [3] shares this test system. Format: cell-based, Influenza type A, A/New Caledonia/20/99 (H1N1). The note with it: high concentration, Neutral Red Uptake Assay.
In series [4] the test system is Influenza A (H3N2 strain) virus. It is filed as cell-based, Influenza type A, A/Panama/2007/99 (H3N2).
The test system is the same in series [5]. It is filed as cell-based, Influenza type A, A/Panama/2007/99 (H3N2). As to conditions: high concentration, Neutral Red Uptake Assay.
Series [6] concerns HIV-1IIIB. The experiment in a line: Inhibition of p24 production (HIV-1IIIB infection of MT-2 cells). Format: cell-based. The note with it: fourth day, p24 ELISA. The protocol: Experiment 1.2: Inhibition of HIV-1IIIB Infection
After 1 h, half of the culture medium was changed and replaced by fresh medium (with/without Lipid-conjugate) and after 24 h, the second half of the culture medium was changed and replaced by fresh medium (with/without Lipid-conjugate). On the fourth day after incubation at 37° C., 100 μl of culture supernatants were collected from each well and an equal volume of fresh medium was added to the wells. The collected supernatants were mixed with an equal volume of 5% (v/v) Triton X-100 and assayed for p24 antigen using an ELISA kit from Coulter Immunology (Hialeah, Fla.).
For orientation: In an ELISA, binding on a coated surface is turned into a signal by an enzyme label.

Series [7] has as its system HIV-1IIIB-infected H9 cells and uninfected MT-2 cells. The experiment in a line: Inhibition of fusion between HIV-infected and uninfected cells. Format: cell-based. The note with it: for IC50 (mean ± SD), inhibition of fusion / IC90 (mean ± SD), inhibition of fusion: H9/HIV-1 IIIB + MT-2 cells, 2 h; for pIC50 / IC90: Table 1.4. The method, then: In this assay, HIV-1IIIB-infected H9 cells were labeled with BCECF (2′,7′-bis(2-carboxyethyl)-5-6-carboxyfluorescein-acetoxymethyl-ester, Molecular Probes, Eugene, Oreg.) according to the manufacturer's instructions. BCECF-labeled H9/HIV-1 IIIB cells (10^4) were mixed with 1×10^5 uninfected MT-2 cells. After incubation in a 96-well plate at 37° C. for 2 h, the fused and unfused labeled cells were counted under an inverted fluorescence microscope at ×160 magnification. At least 200 BCECF-labeled cells were counted and the proportion of fused cells was determined Fusion tests were carried out in the presence and absence of graded quantities of the tested Lipid-conjugates. […] The IC50 represents the concentration of a drug that is required to achieve 50% inhibition. Similarly, the IC90 represents the concentration of a drug that is required to achieve 90% inhibition.

The target in series [8] is V3 (third variable) domain of the HIV-1 envelope glycoprotein gp120. The experiment in a line: V3 antibody binding (ELISA). The note with it: standard ELISA. Also on record: species or system human immunodeficiency virus type 1 (HIV-1). The method, then: V3 antibody binding is an assay that uses an antibody that binds to the V3 (third variable) domain of the human immunodeficiency virus type 1 (HIV-1) envelope glycoprotein gp120. Anti-V3 domain antibodies may provide an indicator of the presence and amount of HIV. V3 antibody binding was determined by standard ELISA.

Series [9] deals with Punta Toro virus. Format: cell-based, strain Adames.
Series [10] has as its system Punta Toro virus. It is filed as cell-based, strain Adames. This is another data set of the same source.
Series [11] has as its system Respiratory syncytial virus. It is filed as cell-based, strain A2. The note with it: lower range of doses, at the concentrations tested.
Series [12] concerns Influenza B virus. Format: cell-based, Influenza type B, B/Hong Kong/330/02. As to conditions: lower range of doses, at the concentrations tested.
Series [13] deals with vaccinia virus (WR strain). It is filed as cell-based. As to conditions: 48 hr.
The subject of series [14] is mice. The experiment in a line: Acute (7 day) toxicity test. As to conditions: mice, one week after a single i.p. dose of 1000, 500 or 200 mg/kg; versus untreated mice. Format: in vivo. The method, then:
[…] Mortality rate, body weight, blood count (red and white cells), hematocrit, and internal organ histology after sacrifice were assessed. These parameters were compared in Lipid-conjugate-treated and in control, untreated mice.

The test system of series [15] is Guinea pig tracheal rings. The experiment in a line: Inhibition of tracheal ring contraction. The note with it: Lipid-conjugate 10 μM. The method, then:
A muscle preparation (tracheal rings) was isolated from rats (Experiments 3.1-3.3) and from guinea pigs (Experiments 3.4-3.5). Muscle contraction was measured by attachment of the muscle to a pressure transducer, which works much like a spring. Administration of asthmatogenic substances such as endothelin-1 (ET) and acetylcholine (AcCh) induces muscle contraction. Endothelins are released upon vascular endothelial injury, and they activate macrophages and act as strong chemo-attractants for circulating monocytes. Endothelins affect vascular smooth muscle fibroblast proliferation; help regulate vascular, airway, and intestinal smooth muscle tone; increase the activity of bone alkaline phosphatase; stimulate release of atrial natriuretic peptide (ANP) from atrial cardiocytes; inhibit the release of renin from glomeruli and modulate norepinephrine at sympathetic nerve termini. Opposing vasomotor effects are regulated through the binding of distinct endothelin receptors for vasoconstriction and vasodilation. Endothelins have been linked to atherosclerosis and various cardiovascular disease states. ET-1 is important in congestive heart failure, renal failure, pulmonary hypertension, hyperlipidemia and metastatic prostate cancer. On the other hand, AcCh is one of the three main receptors on the bronchi of the lungs, which are basically tubes with muscular walls. Stimulation of bronchial AcCh receptor induces muscle contraction and decreased airflow through the bronchi. Thus, ET and AcCh were used to experimentally induce muscle contraction in the lungs as a model of obstructive respiratory disorders.
Experiment 3.4: Guinea pig tracheal rings (in a linear array), immersed in a ringer bath, were connected to an apparatus measuring the length of the ring chain. […] Human airways have both Histamine (H)-1 and H2 receptors. H1 receptors, which mediate bronchoconstriction, predominate. Histamine application in experimental models produces signs and symptoms of asthma, such as narrowing of the airways, mucus secretion, wheezing, and coughing.

For series [16], the system named is PGE2 and TXB2 production by guinea pig tracheal rings. The experiment in a line: Tracheal tissue PGE2 and TXB2 production (radioimmunoassay). As to conditions: Histamine (40 μM) + Compound XXVI (10 μM); histamine alone 5.6. The protocol: Experiment 3.5: Guinea pig tracheal rings were incubated with or without Compound XXVI for 30 minutes prior to stimulation. The medium was collected after 30 minutes, and PGE2 and TXB2 levels were determined by radioimmunoassay (Table 3.2). PGE2 and TXB2 are metabolites of arachidonic acid produced during inflammatory response.

The mark [17] stands for this setting: lower range of doses, at the concentrations tested.

pIC50: −log10 of the molar value. Read-outs that look alike come from different tables or passages of the source. A value given as a limit tells only on which side of the number the result lay.

“hyaluronic acid [HA, reference compound]”: the “HEMOLYSIS (O.D. AT 540 nm), Lyso-PC” value in series [1] (5 μg/ml lysophosphatidylcholine) worked out at 1.875 O.D. The “HEMOLYSIS (O.D. AT 540 nm), SLO” value in [1] (5 U/ml streptolysin O) was 1.000 O.D. For the same molecule, the “HEMOLYSIS (O.D. AT 540 nm), SLS” value in series [1] (25 U/ml streptolysin S) came to 1.000 O.D.

Consider `NC(=O)c1ncn([C@@H]2O[C@H](CO)[C@@H](O)[C@H]2O)n1` [Ribavirin, reference compound], for which the “SI (IC50/EC50)” value is given as 22 in series [2]; 25 in series [3]; 56 in [4] (high concentration, Visual Observation Assay, Influenza A (H3N2 strain)); 36 in series [5].

A word on the pIC50: it is the IC50 on a negative log10 scale, so that one unit is a factor of ten. Higher therefore signals a small IC50. In general, IC90 refers to the concentration at which the effect reaches the 90% level. A high value points to a need for much substance. As usually defined, the EC50 is the concentration needed to bring the measured effect to its halfway point. A word on the % inhibition: it is the change of the read-out against control, counted positive when it falls. Higher therefore signals strong suppression. For the molecule “dipalmitoyl-phosphatidyl-ethanolamine (PE) conjugated to chondroitin-sulfate A [Compound XXV]”, in series [6], the pIC50 was 5.84; the “IC50 (mean ± SD), inhibition of p24 production” value is 72.5 ± 8.0 µg/mL; the IC90 was 2120 nM; the “IC90 (mean ± SD), inhibition of p24 production” value stood at 106.0 ± 10.3 µg/mL. Further, in [7], the “IC50 (mean ± SD), inhibition of fusion” value is >500 µg/mL; the “IC90 (mean ± SD), inhibition of fusion” value is >500 µg/mL; the pIC50 is < 5.00; the IC90 was > 10000 nM. This molecule had a pIC50 in series [8] of 6.70. Besides, in [9], the “SI (IC50/EC50)” value is reported as 0. For the same molecule, in [9] (low concentrations, Visual Observation Assay, Punta Toro A), the EC50 was >100 µg/mL. Moreover, the “virus inhibitory effect against Punta Toro virus” value in [9] (setting [17]) is listed as “did not display a virus inhibitory effect”. Further, the “SI (IC50/EC50)” value in series [10] is reported as 0. The EC50 in [10] (low concentrations, Neutral Red Uptake Assay, Punta Toro A) was >100 µg/mL. Besides, the “virus inhibitory effect against RSV” value in [11] is listed as “did not demonstrate a virus inhibitory effect”. The “virus inhibitory effect against influenza A (H3N2 strain)” value in [4] (setting [17]) was “did not demonstrate a virus inhibitory effect”. Further, the “virus inhibitory effect against influenza B” value in [12] is given as “did not demonstrate a virus inhibitory effect”. Further, in series [13], the “% inhibition” value is reported as 62.8% and the Virus titer was 3.2 × 10^7 PFU/culture. Also, in series [14], the “toxicity: mortality rate, body weight, blood count, hematocrit, internal organ histology” value is listed as “induced hemorrhage”.

On to PE conjugated to CMC [Compound XXVI], for which the “% Inhibition of tracheal ring contraction” value in [15] (stimulant Endothelin-1 (100 nM)) worked out at 92 ± 1.1%; in series [15] (stimulant Histamine (20 μM)), 69 ± 0.1%; in [15] (stimulant Phospholipase (0.5 μ/ml) (crotalus atrox type II)) it was 100 ± 0.3%. The TXB2 in series [16] amounted to 1.75 ng/mL. In [14], the “toxicity: mortality rate, body weight, blood count, hematocrit, internal organ histology” value is “did not alter the parameters”.

Turning to “dimyristoyl-phosphatidyl-ethanolamine linked to HA [Compound XXIII]”, in [6], the pIC50 is 5.75; the “IC50 (mean ± SD), inhibition of p24 production” value came to 118.0 ± 16.8 µg/mL; it took 4440 nM to reach the 90% level (IC90); the “IC90 (mean ± SD), inhibition of p24 production” value was 296.3 ± 104.0 µg/mL. In [7], the “IC50 (mean ± SD), inhibition of fusion” value is 122.8 ± 14.8 µg/mL; the “IC90 (mean ± SD), inhibition of fusion” value stood at 219.8 ± 10.6 µg/mL; the pIC50 was 5.74; the IC90 is 3300 nM. In series [8], the pIC50 was 5.52. Also, in series [13], the “% inhibition” value came out at 99.9% and the Virus titer is 7.7 × 10^4 PFU/culture.

For “PE conjugated to Polygeline (haemaccel) [Compound XXVII]”, in [6], the “IC50 (mean ± SD), inhibition of p24 production” value turned out to be 375.8 ± 119.5 µg/mL and the “IC90 (mean ± SD), inhibition of p24 production” value was >500 µg/mL. In series [7], the “IC50 (mean ± SD), inhibition of fusion” value is >500 µg/mL and the “IC90 (mean ± SD), inhibition of fusion” value is >500 µg/mL.
